Data taken from ChEMBL document CHEMBL1255533, “PKI-179: an orally efficacious dual phosphatidylinositol-3-kinase (PI3K)/mammalian target of rapamycin (mTOR) inhibitor” (Bioorg Med Chem Lett, 2010).
The source made the active and inactive calls. The rule behind the calls is not given here.

Key:
PC-3 = experiment: Antiproliferative activity against human PC3 cells; assay type: functional, cell-based
MDA-MB-361 [1] = experiment: Antiproliferative activity against human MDA-MB-361 cells; assay type: functional, cell-based
[2] = target: Phosphatidylinositol 4,5-bisphosphate 3-kinase catalytic subunit alpha isoform (Homo sapiens, UniProt P42336); experiment: Inhibition of PI3K-alpha
Chain of Phosphatidylinositol 4,5-bisphosphate 3-kinase catalytic subunit alpha isoform (Homo sapiens, UniProt P42336) (P42336 whole entry, canonical isoform): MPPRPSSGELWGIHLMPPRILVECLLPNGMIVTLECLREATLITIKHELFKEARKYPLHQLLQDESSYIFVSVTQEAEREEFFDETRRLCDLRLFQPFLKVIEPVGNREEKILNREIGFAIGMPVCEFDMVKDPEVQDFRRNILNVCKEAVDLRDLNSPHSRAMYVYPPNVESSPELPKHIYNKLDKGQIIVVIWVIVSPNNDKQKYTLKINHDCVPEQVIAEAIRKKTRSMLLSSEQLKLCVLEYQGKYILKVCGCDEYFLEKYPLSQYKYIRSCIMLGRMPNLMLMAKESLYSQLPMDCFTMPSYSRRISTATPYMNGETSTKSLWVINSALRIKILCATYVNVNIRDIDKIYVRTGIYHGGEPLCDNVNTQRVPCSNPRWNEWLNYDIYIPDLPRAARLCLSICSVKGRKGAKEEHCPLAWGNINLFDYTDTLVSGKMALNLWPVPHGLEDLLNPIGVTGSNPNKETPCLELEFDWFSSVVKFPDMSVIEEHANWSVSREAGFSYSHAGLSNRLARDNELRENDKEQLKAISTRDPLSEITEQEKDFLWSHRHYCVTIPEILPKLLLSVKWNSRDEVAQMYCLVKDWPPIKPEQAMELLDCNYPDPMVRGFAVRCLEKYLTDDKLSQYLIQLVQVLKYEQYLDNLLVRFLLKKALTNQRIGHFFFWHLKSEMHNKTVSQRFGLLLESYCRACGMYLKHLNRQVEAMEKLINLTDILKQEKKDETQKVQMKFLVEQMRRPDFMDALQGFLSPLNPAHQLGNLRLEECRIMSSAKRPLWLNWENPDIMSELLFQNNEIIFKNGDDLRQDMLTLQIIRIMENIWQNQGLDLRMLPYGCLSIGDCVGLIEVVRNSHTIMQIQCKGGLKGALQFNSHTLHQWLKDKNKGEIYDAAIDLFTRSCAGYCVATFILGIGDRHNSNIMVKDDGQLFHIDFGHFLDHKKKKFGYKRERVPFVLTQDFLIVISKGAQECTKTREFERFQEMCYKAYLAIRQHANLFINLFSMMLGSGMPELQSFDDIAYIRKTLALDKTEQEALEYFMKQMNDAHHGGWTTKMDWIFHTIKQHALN

[3] = target: Serine/threonine-protein kinase mTOR (Homo sapiens, UniProt P42345); experiment: Inhibition of mTOR
[4] = target: Phosphatidylinositol 4,5-bisphosphate 3-kinase catalytic subunit gamma isoform (Homo sapiens, UniProt P48736); experiment: Inhibition of PI3K-gamma
Chain of Phosphatidylinositol 4,5-bisphosphate 3-kinase catalytic subunit gamma isoform (P48736 whole entry, canonical isoform): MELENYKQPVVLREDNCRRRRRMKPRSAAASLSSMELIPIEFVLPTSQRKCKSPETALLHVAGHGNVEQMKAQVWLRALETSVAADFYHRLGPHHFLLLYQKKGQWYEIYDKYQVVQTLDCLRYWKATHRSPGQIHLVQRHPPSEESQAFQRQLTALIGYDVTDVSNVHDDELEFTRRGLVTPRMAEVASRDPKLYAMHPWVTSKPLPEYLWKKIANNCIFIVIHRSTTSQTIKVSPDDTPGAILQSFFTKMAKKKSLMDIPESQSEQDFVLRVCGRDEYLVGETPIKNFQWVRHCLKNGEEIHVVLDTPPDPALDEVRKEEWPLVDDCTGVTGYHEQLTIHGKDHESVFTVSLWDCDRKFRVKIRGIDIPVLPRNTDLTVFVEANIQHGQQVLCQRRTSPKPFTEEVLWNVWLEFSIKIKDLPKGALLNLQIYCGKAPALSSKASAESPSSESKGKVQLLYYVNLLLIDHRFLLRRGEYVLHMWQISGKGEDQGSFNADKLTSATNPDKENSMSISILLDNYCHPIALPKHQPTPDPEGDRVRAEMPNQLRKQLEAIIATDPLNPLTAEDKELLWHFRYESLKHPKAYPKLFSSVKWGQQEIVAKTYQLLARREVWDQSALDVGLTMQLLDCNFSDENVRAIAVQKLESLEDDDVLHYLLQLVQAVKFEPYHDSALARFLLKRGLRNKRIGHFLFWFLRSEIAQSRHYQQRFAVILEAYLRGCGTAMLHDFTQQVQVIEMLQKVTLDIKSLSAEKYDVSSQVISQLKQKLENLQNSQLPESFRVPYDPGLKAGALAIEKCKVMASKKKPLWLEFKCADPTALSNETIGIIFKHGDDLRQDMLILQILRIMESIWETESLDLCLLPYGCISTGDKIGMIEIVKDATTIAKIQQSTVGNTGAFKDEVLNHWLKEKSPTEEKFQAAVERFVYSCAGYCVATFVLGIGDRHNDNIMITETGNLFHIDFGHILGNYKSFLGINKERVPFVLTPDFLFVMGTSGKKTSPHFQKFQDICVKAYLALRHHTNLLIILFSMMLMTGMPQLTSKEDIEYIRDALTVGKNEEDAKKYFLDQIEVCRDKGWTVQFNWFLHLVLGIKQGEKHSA

Mus musculus [5] = experiment: In vivo inhibition of PI3K in mouse bearing human MDA-MB-361 cells assessed as inhibition of AKT phosphorylation at 50 mg/kg, po; assay type: functional, organism-based; design: dose 50 mg/kg
[6] = target: Phosphatidylinositol 4,5-bisphosphate 3-kinase catalytic subunit beta isoform (Homo sapiens, UniProt P42338); experiment: Inhibition of PI3K-beta
Chain of Phosphatidylinositol 4,5-bisphosphate 3-kinase catalytic subunit beta isoform (P42338 whole entry, canonical isoform): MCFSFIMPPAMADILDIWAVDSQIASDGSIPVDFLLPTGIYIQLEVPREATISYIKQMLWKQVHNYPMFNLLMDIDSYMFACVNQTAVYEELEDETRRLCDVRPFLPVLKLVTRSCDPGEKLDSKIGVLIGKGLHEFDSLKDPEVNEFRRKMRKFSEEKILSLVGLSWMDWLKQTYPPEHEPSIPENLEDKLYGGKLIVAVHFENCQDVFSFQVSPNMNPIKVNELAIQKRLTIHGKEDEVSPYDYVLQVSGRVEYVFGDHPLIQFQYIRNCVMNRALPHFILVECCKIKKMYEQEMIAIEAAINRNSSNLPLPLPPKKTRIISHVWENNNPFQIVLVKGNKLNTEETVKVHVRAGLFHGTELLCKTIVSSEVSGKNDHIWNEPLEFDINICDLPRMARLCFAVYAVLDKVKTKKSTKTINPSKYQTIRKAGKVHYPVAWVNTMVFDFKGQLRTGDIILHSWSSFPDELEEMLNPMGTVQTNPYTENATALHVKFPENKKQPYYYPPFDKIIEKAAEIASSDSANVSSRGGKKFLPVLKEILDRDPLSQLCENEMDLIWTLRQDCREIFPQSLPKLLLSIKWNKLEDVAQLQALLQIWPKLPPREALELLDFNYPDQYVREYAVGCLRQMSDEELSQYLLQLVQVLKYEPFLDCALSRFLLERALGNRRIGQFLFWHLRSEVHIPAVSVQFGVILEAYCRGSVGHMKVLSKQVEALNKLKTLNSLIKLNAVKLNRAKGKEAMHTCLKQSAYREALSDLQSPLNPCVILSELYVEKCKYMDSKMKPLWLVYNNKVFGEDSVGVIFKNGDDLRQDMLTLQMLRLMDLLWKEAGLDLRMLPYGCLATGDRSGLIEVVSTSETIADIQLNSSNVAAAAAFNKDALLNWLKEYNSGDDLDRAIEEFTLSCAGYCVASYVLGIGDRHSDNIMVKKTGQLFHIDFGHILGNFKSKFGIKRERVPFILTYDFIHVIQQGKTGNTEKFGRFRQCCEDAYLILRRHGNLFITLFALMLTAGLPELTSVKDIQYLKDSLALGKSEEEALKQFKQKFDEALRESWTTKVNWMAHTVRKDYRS

Cytochrome P450 2D6 = Cytochrome P450 2D6 (Homo sapiens, UniProt P10635); experiment: Inhibition of CYP2D6; assay type: ADME
Chain of Cytochrome P450 2D6 (P10635 whole entry, canonical isoform): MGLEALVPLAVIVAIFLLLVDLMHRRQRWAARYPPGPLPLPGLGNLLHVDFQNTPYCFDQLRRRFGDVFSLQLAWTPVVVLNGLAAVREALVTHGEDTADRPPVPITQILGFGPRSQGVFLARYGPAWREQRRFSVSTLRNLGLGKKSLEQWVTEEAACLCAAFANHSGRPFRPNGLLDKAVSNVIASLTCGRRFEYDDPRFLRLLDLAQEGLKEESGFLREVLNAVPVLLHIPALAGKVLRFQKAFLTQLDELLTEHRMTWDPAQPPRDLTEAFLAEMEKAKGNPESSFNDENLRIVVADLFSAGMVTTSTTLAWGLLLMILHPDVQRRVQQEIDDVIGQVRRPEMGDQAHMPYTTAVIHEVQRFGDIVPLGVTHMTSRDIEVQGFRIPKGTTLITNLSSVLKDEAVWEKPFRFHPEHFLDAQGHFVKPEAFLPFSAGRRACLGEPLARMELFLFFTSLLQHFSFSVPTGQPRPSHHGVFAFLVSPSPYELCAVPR

[7] = target: Phosphatidylinositol 4,5-bisphosphate 3-kinase catalytic subunit alpha isoform (Homo sapiens, UniProt P42336, E545K); experiment: Inhibition of PI3K-alpha E545K mutant
Chain of Phosphatidylinositol 4,5-bisphosphate 3-kinase catalytic subunit alpha isoform (Homo sapiens, UniProt P42336, E545K) (P42336 whole entry E545K, canonical isoform): as the sequence (P42336 whole entry, canonical isoform) above, with E545K counted along it

[8] = target: T1, Phosphatidylinositol 4,5-bisphosphate 3-kinase catalytic subunit delta isoform (Homo sapiens, UniProt O00329); experiment: Inhibition of PI3K-delta
T1 sequence (O00329 whole entry): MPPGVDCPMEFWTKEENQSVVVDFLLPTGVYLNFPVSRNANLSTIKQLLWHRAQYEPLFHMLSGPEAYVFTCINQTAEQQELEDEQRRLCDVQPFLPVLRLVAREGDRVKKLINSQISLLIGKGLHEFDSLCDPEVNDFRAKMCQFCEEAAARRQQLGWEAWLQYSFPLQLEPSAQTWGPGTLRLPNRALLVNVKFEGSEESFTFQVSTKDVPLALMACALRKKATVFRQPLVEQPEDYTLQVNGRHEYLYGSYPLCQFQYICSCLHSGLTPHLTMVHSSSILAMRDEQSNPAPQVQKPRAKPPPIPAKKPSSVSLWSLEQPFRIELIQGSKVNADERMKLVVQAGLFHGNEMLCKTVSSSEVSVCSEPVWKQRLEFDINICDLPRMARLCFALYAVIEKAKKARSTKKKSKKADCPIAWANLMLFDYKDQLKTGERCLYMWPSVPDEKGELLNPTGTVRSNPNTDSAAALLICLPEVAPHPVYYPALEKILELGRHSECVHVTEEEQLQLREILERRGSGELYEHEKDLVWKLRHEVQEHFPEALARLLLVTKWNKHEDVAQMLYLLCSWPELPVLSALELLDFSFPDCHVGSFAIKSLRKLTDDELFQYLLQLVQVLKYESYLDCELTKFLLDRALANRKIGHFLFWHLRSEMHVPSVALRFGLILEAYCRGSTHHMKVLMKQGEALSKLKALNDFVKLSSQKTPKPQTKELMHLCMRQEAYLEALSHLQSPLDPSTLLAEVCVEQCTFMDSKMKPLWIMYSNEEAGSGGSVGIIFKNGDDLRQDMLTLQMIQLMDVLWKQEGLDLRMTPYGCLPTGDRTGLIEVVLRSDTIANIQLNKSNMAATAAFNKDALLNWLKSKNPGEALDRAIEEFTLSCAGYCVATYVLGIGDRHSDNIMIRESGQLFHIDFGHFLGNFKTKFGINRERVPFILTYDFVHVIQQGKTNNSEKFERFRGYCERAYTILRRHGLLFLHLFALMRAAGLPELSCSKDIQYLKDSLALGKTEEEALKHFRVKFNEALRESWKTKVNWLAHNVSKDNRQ

Cytochrome P450 1A2 = target: T2, Cytochrome P450 1A2 (Homo sapiens, UniProt P05177); experiment: Inhibition of CYP1A2; assay type: ADME
T2 sequence (P05177 whole entry): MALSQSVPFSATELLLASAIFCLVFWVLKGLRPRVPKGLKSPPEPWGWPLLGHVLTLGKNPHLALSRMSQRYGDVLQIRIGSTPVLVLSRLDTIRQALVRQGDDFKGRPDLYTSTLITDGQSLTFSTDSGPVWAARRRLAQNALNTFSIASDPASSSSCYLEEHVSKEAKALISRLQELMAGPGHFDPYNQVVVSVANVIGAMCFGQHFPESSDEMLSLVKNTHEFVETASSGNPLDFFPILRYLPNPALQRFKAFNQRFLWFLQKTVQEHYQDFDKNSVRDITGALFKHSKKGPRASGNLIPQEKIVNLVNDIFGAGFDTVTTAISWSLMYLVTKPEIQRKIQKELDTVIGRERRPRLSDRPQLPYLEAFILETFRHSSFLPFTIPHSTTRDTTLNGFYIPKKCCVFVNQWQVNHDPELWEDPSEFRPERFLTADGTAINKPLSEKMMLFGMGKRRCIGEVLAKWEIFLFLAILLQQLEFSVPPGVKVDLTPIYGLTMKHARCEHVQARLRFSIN

Cytochrome P450 3A4 = Cytochrome P450 3A4 (Homo sapiens, UniProt P08684); experiment: Inhibition of CYP3A4; assay type: ADME
Chain of Cytochrome P450 3A4 (P08684 whole entry): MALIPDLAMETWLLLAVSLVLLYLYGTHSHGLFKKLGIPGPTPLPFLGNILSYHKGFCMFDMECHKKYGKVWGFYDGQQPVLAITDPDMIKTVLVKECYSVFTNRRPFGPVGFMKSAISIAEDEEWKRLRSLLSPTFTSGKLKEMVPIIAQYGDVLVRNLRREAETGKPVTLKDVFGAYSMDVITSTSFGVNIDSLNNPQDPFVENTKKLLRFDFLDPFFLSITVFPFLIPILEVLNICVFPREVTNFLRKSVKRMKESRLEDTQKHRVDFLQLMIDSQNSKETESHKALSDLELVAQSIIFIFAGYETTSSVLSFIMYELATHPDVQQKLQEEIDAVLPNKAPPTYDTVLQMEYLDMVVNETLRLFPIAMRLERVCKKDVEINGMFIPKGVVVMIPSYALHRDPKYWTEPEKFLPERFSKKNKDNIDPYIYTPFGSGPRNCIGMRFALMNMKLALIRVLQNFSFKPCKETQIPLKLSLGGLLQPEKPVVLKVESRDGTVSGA

Cytochrome P450 2B6 = target: T3, Cytochrome P450 2B6 (Homo sapiens, UniProt P20813); experiment: Inhibition of CYP2B6; assay type: ADME
T3 sequence (P20813 whole entry): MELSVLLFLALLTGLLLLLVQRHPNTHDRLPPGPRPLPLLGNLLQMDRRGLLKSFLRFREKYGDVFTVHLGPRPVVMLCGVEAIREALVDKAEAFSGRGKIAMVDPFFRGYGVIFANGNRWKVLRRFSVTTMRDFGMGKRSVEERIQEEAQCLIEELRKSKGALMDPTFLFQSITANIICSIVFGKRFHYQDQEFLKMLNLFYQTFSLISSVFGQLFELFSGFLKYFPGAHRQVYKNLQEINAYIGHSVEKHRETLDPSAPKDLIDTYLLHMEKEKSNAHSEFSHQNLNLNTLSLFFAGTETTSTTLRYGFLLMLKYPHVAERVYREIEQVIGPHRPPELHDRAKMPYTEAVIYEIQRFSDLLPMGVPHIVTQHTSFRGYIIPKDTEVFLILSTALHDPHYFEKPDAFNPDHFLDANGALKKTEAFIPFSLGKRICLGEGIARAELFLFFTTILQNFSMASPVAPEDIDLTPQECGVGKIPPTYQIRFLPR

MDA-MB-361 [9] = experiment: Induction of apoptosis in human MDA-MB-361 cells assessed as PARP cleavage after 4 hrs; assay type: functional, cell-based
Mus musculus [10] = experiment: In vivo inhibition of mTORC1 in mouse bearing human MDA-MB-361 cells assessed as inhibition of S6 phosphorylation at 50 mg/kg, po; assay type: functional, organism-based; design: dose 50 mg/kg
Mus musculus [11] = experiment: In vivo inhibition of mTORC1 in mouse bearing human MDA-MB-361 cells assessed as inhibition of S6K phosphorylation at 50 mg/kg, po; assay type: functional, organism-based; design: dose 50 mg/kg
Mus musculus [12] = experiment: Toxicity in mouse assessed as weight loss at 10 mg/kg, po qd; assay type: organism-based; design: dose 10 mg/kg, route oral; conditions: in vivo
Cytochrome P450 2C19 = Cytochrome P450 2C19 (Homo sapiens, UniProt P33261); experiment: Inhibition of CYP2C19; assay type: ADME
Chain of Cytochrome P450 2C19 (P33261 whole entry): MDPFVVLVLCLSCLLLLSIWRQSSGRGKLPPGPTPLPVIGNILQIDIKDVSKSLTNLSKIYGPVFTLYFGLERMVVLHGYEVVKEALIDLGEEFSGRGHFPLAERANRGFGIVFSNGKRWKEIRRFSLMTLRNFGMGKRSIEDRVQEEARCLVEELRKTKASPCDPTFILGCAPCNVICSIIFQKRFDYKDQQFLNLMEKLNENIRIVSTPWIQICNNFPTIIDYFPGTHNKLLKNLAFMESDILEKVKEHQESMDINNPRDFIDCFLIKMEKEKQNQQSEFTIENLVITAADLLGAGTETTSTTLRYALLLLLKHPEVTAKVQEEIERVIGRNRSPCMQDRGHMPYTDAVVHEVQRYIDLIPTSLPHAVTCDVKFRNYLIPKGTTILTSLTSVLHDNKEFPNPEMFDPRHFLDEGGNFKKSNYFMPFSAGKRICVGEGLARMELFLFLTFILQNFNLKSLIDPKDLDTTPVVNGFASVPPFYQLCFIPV

Cytochrome P450 2C8 = target: T4, Cytochrome P450 2C8 (Homo sapiens, UniProt P10632); experiment: Inhibition of CYP2C8; assay type: ADME
T4 sequence (P10632 whole entry): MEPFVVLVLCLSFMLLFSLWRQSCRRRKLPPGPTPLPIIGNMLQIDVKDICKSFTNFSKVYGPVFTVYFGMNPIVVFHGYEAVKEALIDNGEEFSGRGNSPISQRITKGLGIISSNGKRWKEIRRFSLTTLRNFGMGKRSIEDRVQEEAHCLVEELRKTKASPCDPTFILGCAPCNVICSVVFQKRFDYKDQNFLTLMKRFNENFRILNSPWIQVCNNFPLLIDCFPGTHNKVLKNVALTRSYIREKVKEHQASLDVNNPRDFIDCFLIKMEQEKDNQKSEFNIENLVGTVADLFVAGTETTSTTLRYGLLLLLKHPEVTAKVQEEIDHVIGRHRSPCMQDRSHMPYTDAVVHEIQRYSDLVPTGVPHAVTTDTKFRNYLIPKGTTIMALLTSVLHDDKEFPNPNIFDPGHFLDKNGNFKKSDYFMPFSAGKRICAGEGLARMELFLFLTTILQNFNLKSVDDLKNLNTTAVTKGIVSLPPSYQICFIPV

Cytochrome P450 2A6 = target: T5, Cytochrome P450 2A6 (Homo sapiens, UniProt P11509); experiment: Inhibition of CYP2A6; assay type: ADME
T5 sequence (P11509 whole entry): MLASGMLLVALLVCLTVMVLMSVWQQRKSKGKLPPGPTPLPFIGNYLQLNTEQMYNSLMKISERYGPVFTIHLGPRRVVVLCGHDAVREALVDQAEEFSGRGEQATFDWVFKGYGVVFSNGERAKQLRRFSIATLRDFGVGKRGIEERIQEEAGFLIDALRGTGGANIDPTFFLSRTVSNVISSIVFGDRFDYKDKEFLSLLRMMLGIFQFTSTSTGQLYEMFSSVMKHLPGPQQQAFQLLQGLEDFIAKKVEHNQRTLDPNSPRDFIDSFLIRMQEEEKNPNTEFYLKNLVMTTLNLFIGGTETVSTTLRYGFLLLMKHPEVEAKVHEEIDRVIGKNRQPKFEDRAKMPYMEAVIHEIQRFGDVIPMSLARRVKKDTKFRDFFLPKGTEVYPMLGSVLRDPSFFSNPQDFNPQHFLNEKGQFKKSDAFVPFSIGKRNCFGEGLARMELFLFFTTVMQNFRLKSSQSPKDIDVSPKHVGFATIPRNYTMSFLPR

[13] = Inhibition of PI3K-alpha […] mutant
MDA-MB-361 [14] = experiment: Antitumor activity against human MDA-MB-361 cells xenografted in mouse assessed as inhibition tumor growth at 10 mg/kg, po qd; assay type: functional, organism-based; design: dose 10 mg/kg

| Compound | IC50 (PC-3) | IC50 (MDA-MB-361 [1]) | IC50 [2] | IC50 [3] | IC50 [4] | other results |
| --- | --- | --- | --- | --- | --- | --- |
| O=C(Nc1ccc(CO)cc1)Nc1ccc(-c2nc(N3CCOCC3)nc(N3C4CCC3COC4)n2)cc1 | 28 nM | 15 nM |  |  |  |  |
| CN(C)CCOc1ccc(NC(=O)Nc2ccc(-c3nc(N4CCOCC4)nc(N4C5CCC4COC5)n3)cc2)cc1 | < 30 nM | < 30 nM | 14 nM |  |  |  |
| CN1CCN(c2ccc(NC(=O)Nc3ccc(-c4nc(N5CCOCC5)nc(N5C6CCC5COC6)n4)cc3)cc2)CC1 | 40 nM | 35 nM |  | 1.1 nM |  |  |
| O=C(Nc1ccc(-c2nc(N3CCOCC3)nc(N3C4CCC3COC4)n2)cc1)Nc1cccnc1 | 98 nM | 73 nM |  |  |  |  |
| O=C(Nc1ccc(-c2nc(N3CCOCC3)nc(N3C4CCC3COC4)n2)cc1)Nc1ccc(-c2cccnc2)nc1 | 45 nM | 56 nM | 40 nM | 3.45 nM | 44 nM |  |
| O=C(Nc1ccccc1)Nc1ccc(-c2nc(N3CCOCC3)nc(N3C4CCC3COC4)n2)cc1 | 147 nM | 104 nM | 18 nM | 2 nM | 51 nM |  |
| CN(C)c1ccc(NC(=O)Nc2ccc(-c3nc(N4CCOCC4)nc(N4C5CCC4COC5)n3)cc2)cc1 | > 1000 nM | > 1000 nM | 3.5 nM | 13.5 nM | 717 nM |  |
| O=C(Nc1ccc(-c2nc(N3CCOCC3)nc(N3C4CCC3COC4)n2)cc1)Nc1ccnc(Cl)c1 | 118 nM | 93 nM | 23 nM |  |  |  |
| O=C(Nc1ccc(CCO)cc1)Nc1ccc(-c2nc(N3CCOCC3)nc(N3C4CCC3COC4)n2)cc1 | 30 nM | 22 nM |  |  |  |  |
| O=C(Nc1ccc(F)cc1)Nc1ccc(-c2nc(N3CCOCC3)nc(N3C4CCC3COC4)n2)cc1 | 176 nM | 98 nM |  | 1.9 nM |  |  |
| CN1CCN(Cc2ccc(NC(=O)Nc3ccc(-c4nc(N5CCOCC5)nc(N5C6CCC5COC6)n4)cc3)cc2)CC1 | 31 nM | 14 nM |  |  |  |  |
| O=C(Nc1ccc(-c2nc(N3CCOCC3)nc(N3C4CCC3COC4)n2)cc1)Nc1ccnnc1 | 47 nM | 36 nM | 28 nM |  |  |  |
| O=C(Nc1ccncc1)Nc1ccc(-c2nc(N3CCOCC3)nc(N3C4COCC3[C@@H](O)C4)n2)cc1 (stereo partly drawn) | 80 nM | 32 nM | 4 nM | 0.8 nM | 33 nM |  |
| N#Cc1ccc(NC(=O)Nc2ccc(-c3nc(N4CCOCC4)nc(N4C5CCC4COC5)n3)cc2)cc1 | 3600 nM | 345 nM |  | 3.3 nM |  |  |
| O=C(Nc1ccc(-c2nc(N3CCOCC3)nc(N3C4CCC3COC4)n2)cc1)Nc1cncnc1 | 138 nM | 110 nM | 84 nM |  | 240 nM |  |
| Cc1ccc(NC(=O)Nc2ccc(-c3nc(N4CCOCC4)nc(N4C5CCC4COC5)n3)cc2)cc1 | 301 nM | 167 nM |  |  |  |  |
| O=C(Nc1ccncc1)Nc1ccc(-c2nc(N3CCOCC3)nc(N3C4CCC3COC4)n2)cc1 [PKI-179] | 29 nM | 22 nM |  | 0.42 nM | 74 nM | inhibition (Mus musculus [5]): Active; IC50 [6]: 24 nM; IC50 (Cytochrome P450 2D6): > 30000 nM; IC50 [7]: 14 nM; IC50 [8]: 77 nM; IC50 (Cytochrome P450 1A2): > 30000 nM; IC50 (Cytochrome P450 3A4): > 30000 nM; IC50 (Cytochrome P450 2B6): > 30000 nM; Activity (MDA-MB-361 [9]): Active; inhibition (Mus musculus [10]): Active; inhibition (Mus musculus [11]): Active; Activity (Mus musculus [12]): Non-toxic; IC50 (Cytochrome P450 2C19): > 30000 nM; IC50 (Cytochrome P450 2C8): 3000 nM; IC50 (Cytochrome P450 2A6): > 30000 nM; IC50 [13]: 11 nM; inhibition (MDA-MB-361 [14]): Active |
| COc1ccc(NC(=O)Nc2ccc(-c3nc(N4CCOCC4)nc(N4C5CCC4COC5)n3)cc2)cc1OC | 1250 nM | 402 nM | 13.5 nM | 93.5 nM | 358 nM |  |
